In patent publication US10077261B2, “Imidazolin-5-one derivative useful as FASN inhibitors for the treatment of cancer” (Janssen Pharmaceutica NV, priority 2012, dated 2018):

Key:
A2780 ovarian cells [1] = experiment: A2780 ovarian cell proliferation assay in lipid reduced medium, with palmitate (MTT); assay type: cell-based; conditions: Homo sapiens, A2780, 96 h; read-out: pIC50 A2780 Ovarian Cell, With Palmitate (converted)
Experimental: (§1) The biological assays described below correspond to comparative assays for ovarian cell proliferation. […] Compounds active in the absence of palmitate would not be expected to be active in the control.
(§2) 2500 cells were seeded in a 96-well clear well plate in 200 μL RPMI1640 with 10% Fetal Calf Serum (Hyclone), and incubated at 37° C., 5% CO2. Blanks were wells without cells. The next day the culture medium was aspirated and replaced by 160 μL culture medium with 10% Lipid-Reduced Serum (LRS, Hyclone). 20 μL test compound (at concentrations of 30 μM, 10 μM, 3 μM, 1 μM, 0.30 μM, 0.10 μM, 0.03 μM and 0.01 μM)/DMSO dilution followed by 20 μL palmitate-BSA solution were added to a final concentrations of 0.2% DMSO, 25 μM palmitate (Sigma, P0500, 10 mM stock solution in ethanol) 0.2% fatty-acid-free BSA, 0.25% ethanol. After 96 h incubation, an MTT assay was performed. The absorbance was measured at 544 nm on a SPECTRAMAX brand microplate reader (Molecular Devices).
A best fit curve was fitted by a minimum sum of squares method, plotting Controlmin versus test compound concentration.
(§3) Representative compounds of the present invention were tested according to the procedure as described in Biological Example 3 above, with results as listed in Table 8, below.

A2780 ovarian cells [2] = experiment: A2780 ovarian cell proliferation assay in lipid reduced medium, without palmitate (MTT); assay type: cell-based; conditions: Homo sapiens, A2780, 96 h; read-out: pIC50 A2780 Ovarian Cell, Without Palmitate (converted)
Experimental: as §1
as §2, with “ethanol-BSA” for “palmitate-BSA”, “DMSO,” for “DMSO, 25 μM palmitate (Sigma, P0500, 10 mM stock solution in ethanol)”, “incubation” for “incubation,”
where mLC and mHC were the means of the low control wells and high control wells on the plate, after manual exclusion of outliers. A plot of Controlmin versus test compound concentration was fitted to a 4-parameter logistic curve using a non-linear least squares regression method.
as §3

[3] = target: T1, hFASN enzyme (full length) (Homo sapiens, UniProt P49327); experiment: Fatty Acid Synthase (FASN) inhibition scintillation proximity assay; assay type: biochemical; conditions: for inhibition at 10 µM: read-out: Human FASN % inhibition @ 10 μM, 10 μM test compound; for IC50: read-out: Human FASN pIC50 (converted)
T1 construct: 10 μL hFASN enzyme (full length, 300 ng, purified in house); made in house
T1 sequence (P49327 whole entry): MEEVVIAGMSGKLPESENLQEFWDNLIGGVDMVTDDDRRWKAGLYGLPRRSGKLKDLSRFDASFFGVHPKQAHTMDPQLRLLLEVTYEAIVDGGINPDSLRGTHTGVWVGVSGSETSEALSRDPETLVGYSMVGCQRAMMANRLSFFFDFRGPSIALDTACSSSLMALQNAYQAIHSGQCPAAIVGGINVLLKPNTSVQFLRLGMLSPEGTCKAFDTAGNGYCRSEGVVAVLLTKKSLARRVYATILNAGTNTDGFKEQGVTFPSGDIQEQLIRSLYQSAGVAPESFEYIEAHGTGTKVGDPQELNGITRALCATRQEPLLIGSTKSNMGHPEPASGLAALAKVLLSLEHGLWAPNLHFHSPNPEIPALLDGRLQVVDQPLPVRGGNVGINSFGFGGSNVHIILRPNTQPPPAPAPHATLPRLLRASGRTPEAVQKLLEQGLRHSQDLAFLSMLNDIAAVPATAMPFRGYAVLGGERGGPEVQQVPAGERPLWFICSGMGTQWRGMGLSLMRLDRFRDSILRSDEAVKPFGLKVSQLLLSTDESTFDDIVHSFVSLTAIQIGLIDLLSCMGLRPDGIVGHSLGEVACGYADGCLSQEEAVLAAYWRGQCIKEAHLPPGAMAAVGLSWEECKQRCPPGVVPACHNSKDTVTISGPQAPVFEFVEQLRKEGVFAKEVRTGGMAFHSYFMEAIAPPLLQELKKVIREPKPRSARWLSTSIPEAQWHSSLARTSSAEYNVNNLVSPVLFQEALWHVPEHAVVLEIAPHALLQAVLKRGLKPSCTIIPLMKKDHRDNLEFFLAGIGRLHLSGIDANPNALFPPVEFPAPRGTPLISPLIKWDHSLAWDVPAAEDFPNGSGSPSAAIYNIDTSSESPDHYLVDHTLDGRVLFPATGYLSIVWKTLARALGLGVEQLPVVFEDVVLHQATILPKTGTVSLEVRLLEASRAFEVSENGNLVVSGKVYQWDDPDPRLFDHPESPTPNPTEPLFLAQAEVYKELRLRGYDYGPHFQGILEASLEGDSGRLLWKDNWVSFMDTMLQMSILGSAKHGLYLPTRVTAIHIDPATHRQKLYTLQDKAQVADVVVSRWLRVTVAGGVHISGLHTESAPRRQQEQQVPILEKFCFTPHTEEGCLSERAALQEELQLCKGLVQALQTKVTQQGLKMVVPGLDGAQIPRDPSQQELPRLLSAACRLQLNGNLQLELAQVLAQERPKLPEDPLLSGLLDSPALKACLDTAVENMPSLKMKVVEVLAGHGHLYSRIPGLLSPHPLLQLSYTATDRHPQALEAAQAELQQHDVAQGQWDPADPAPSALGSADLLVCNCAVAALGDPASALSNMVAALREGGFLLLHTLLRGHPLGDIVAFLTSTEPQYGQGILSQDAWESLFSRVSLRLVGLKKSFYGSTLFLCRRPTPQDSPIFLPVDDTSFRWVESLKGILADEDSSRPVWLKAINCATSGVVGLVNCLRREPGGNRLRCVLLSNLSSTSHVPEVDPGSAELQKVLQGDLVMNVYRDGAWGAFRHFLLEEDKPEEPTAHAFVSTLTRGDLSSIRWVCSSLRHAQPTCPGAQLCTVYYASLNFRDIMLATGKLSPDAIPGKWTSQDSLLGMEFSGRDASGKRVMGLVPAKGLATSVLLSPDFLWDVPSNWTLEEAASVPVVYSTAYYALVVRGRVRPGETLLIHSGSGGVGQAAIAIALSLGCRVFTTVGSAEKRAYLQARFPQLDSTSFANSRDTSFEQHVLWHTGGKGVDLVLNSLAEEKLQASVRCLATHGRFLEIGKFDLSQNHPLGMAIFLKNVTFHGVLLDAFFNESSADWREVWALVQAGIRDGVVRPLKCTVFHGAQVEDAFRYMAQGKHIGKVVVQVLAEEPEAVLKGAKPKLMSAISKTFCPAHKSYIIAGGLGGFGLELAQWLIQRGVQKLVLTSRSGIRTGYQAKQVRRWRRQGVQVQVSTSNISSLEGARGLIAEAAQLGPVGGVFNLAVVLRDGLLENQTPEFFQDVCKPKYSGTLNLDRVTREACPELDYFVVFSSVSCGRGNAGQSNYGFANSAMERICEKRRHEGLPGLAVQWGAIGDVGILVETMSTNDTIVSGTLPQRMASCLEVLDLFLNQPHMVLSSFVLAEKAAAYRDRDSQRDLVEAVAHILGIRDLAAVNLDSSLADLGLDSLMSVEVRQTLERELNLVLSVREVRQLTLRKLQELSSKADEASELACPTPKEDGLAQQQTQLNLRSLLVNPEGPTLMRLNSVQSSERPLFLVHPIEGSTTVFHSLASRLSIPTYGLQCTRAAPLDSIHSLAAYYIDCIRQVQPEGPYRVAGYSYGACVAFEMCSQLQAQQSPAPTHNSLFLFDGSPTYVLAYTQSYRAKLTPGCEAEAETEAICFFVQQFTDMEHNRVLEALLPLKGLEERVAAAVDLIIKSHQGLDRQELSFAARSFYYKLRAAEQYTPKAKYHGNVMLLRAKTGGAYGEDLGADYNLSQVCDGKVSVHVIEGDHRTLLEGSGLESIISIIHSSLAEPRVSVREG
In short: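 Scintillation proximity format: in-house full-length enzyme, 300 ng per well, pH 7.5 phosphate/DTT buffer, ³H-acetyl-CoA and malonyl-CoA. Emission counted on LEADseeker at 610 nm at least 24 h after stopping.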

IC50 (A2780 ovarian cells [1]) | IC50 (A2780 ovarian cells [2]) | inhibition at 10 µM [3] | IC50 [3] | Compound
> 6.17 µM | 4.68 µM |  |  | Cn1ncc2cc(-c3ccc(C4=NC5(CC5)C(=O)N4CC4CCN(C(=O)C5CC5)CC4)cc3)ccc21 [compound 19, 6-{[1-(Cyclopropylcarbonyl)piperidin-4-yl]methyl}-5-[4-(1-methyl-1H-indazol-5-yl)phenyl]-4,6-diazaspiro[2.4]hept-4-en-7-one]
> 10 µM | 0.132 µM |  |  | Cn1ncc2cc(-c3ccc(C4=NC5(CC5)C(=O)N4C[C@@H]4CCN(C(=O)C5CC5)C4)cc3)ccc21 [compound 28, 6-{[(3R)-1-(Cyclopropylcarbonyl)pyrrolidin-3-yl]methyl}-5-[4-(1-methyl-1H-indazol-5-yl)phenyl]-4,6-diazaspiro[2.4]hept-4-en-7-one]
> 10 µM | 0.479 µM |  |  | Cn1ncc2cc(-c3ccc(C4=NC5(CCCC5)C(=O)N4C[C@@H]4CCN(C(=O)C5CC5)C4)cc3)ccc21 [compound 35, 3-{[(3R)-1-(Cyclopropylcarbonyl)pyrrolidin-3-yl]methyl}-2-[4-(1-methyl-1H-indazol-5-yl)phenyl]-1,3-diazaspiro[4.4]non-1-en-4-one]
> 10 µM | 0.00776 µM |  |  | O=C(C1CC1)N1CC[C@@H](CN2C(=O)C3(CC3)N=C2c2ccc(-c3ccc4cnccc4c3)cc2)C1 [compound 47, 6-{[(3R)-1-(Cyclopropylcarbonyl)pyrrolidin-3-yl]methyl}-5-(4-isoquinolin-6-ylphenyl)-4,6-diazaspiro[2.4]hept-4-en-7-one]
> 10 µM | 0.339 µM |  |  | O=C(C1CC1)N1CC[C@@H](CN2C(=O)C3(CC3)N=C2c2ccc(-c3ccc4occc4c3)cc2)C1 [compound 58, (R)-5-(4-(Benzofuran-5-yl)phenyl)-6-((1-(cyclopropanecarbonyl)pyrrolidin-3-yl)methyl)-4,6-diazaspiro[2.4]hept-4-en-7-one]
> 10 µM | 0.631 µM | 92.9% | 0.708 µM | O=C(C1CC1)N1CC[C@@H](CN2C(=O)C3(CC3)N=C2c2ccc(-c3ccc(O)cc3)cc2)C1 [compound 64, 6-{[(3R)-1-(Cyclopropylcarbonyl)pyrrolidin-3-yl]methyl}-5-(4′-hydroxybiphenyl-4-yl)-4,6-diazaspiro[2.4]hept-4-en-7-one]
> 10 µM | 0.0363 µM |  |  | O=C(C1CC1)N1CC[C@@H](CN2C(=O)C3(CC3)N=C2c2ccc(-c3ccc4scnc4c3)cc2)C1 [compound 71, 5-[4-(1,3-Benzothiazol-5-yl)phenyl]-6-{[(3R)-1-(cyclopropylcarbonyl)pyrrolidin-3-yl]methyl}-4,6-diazaspiro[2.4]hept-4-en-7-one]
> 10 µM | 0.148 µM | 111% |  | O=C(C1CC1)N1CC(CN2C(=O)C3(CCCC3)N=C2c2ccc(-c3ccc4[nH]ccc4c3)cc2)C1 [compound 78, 3-{[1-(Cyclopropylcarbonyl)azetidin-3-yl]methyl}-2-[4-(1H-indol-5-yl)phenyl]-1,3-diazaspiro[4.4]non-1-en-4-one]
> 10 µM | 1.02 µM |  |  | O=C(C1CC1)N1CC[C@@H](CN2C(=O)C3(CC3)N=C2c2ccc(-c3cccc(Cl)c3)cc2)C1 [compound 112, 5-(3′-Chlorobiphenyl-4-yl)-6-{[(3R)-1-(cyclopropylcarbonyl)pyrrolidin-3-yl]methyl}-4,6-diazaspiro[2.4]hept-4-en-7-one]
~3.02 µM | 0.0355 µM | 121% | 0.0282 µM | CC1(C(=O)N2CC[C@@H](CN3C(=O)C4(CCCC4)N=C3c3ccc(-c4ccc5occc5c4)cc3)C2)CC1 [compound 116, (R)-2-(4-(Benzofuran-5-yl)phenyl)-3-((1-(1-methylcyclopropanecarbonyl)pyrrolidin-3-yl)methyl)-1,3-diazaspiro[4.4]non-1-en-4-one]
9.12 µM | ~2.4 µM | 108% | 0.204 µM | O=C(N1CCCC1)N1CC[C@@H](CN2C(=O)C3(CCCC3)N=C2c2ccc(-c3ccc4occc4c3)cc2)C1 [compound 117, 2-[4-(1-Benzofuran-5-yl)phenyl]-3-{[(3S)-1-(pyrrolidin-1-ylcarbonyl)pyrrolidin-3-yl]methyl}-1,3-diazaspiro[4.4]non-1-en-4-one]
> 10 µM | 1.66 µM | 101% | 0.355 µM | Cn1ccc(C(=O)N2CC[C@@H](CN3C(=O)C4(CCCC4)N=C3c3ccc(-c4ccc5occc5c4)cc3)C2)n1 [compound 118, 2-[4-(1-Benzofuran-5-yl)phenyl]-3-({(3R)-1-[(1-methyl-1H-pyrazol-3-yl)carbonyl]pyrrolidin-3-yl}methyl)-1,3-diazaspiro[4.4]non-1-en-4-one]
11 µM | ~2.24 µM | 107% | 0.174 µM | O=C(CC(F)(F)F)N1CC[C@@H](CN2C(=O)C3(CCCC3)N=C2c2ccc(-c3ccc4occc4c3)cc2)C1 [compound 119, 2-[4-(1-Benzofuran-5-yl)phenyl]-3-{[(3R)-1-(3,3,3-trifluoropropanoyl)pyrrolidin-3-yl]methyl}-1,3-diazaspiro[4.4]non-1-en-4-one]
5.01 µM | ~0.759 µM | 116% | 0.0389 µM | O=C(C1CC1)N1CC[C@@H](CN2C(=O)C3(CCCC3)N=C2c2ccc(-c3ccc4occc4c3)cc2F)C1 [compound 120, 2-[4-(1-Benzofuran-5-yl)-2-fluorophenyl]-3-{[(3R)-1-(cyclopropylcarbonyl)pyrrolidin-3-yl]methyl}-1,3-diazaspiro[4.4]non-1-en-4-one]
3.09 µM | 0.0141 µM |  |  | O=C(C1CC1)N1CC(CN2C(=O)C3(CC3)N=C2c2ccc(-c3ccc(-c4cnn(C5CCC5)c4)cc3)cc2F)C1 [compound 329, 5-(4′-(1-cyclobutyl-1H-pyrazol-4-yl)-3-fluoro-[1,1′-biphenyl]-4-yl)-6-((1-(cyclopropanecarbonyl)azetidin-3-yl)methyl)-4,6-diazaspiro[2.4]hept-4-en-7-one]
~6.17 µM | 0.0324 µM |  |  | Cc1cc(-c2ccc(-c3cnn(C4CCC4)c3)cc2)ccc1C1=NC2(CC2)C(=O)N1CC1CN(C(=O)C2CC2)C1 [compound 330, 5-(4′-(1-cyclobutyl-1H-pyrazol-4-yl)-3-methyl-[1,1′-biphenyl]-4-yl)-6-((1-(cyclopropanecarbonyl)azetidin-3-yl)methyl)4,6-diazaspiro[2.4]hept-4-en-7-one]
> 10 µM | 0.204 µM |  |  | O=C(C1CC1)N1CC[C@H](CN2C(=O)C3(CC3)N=C2c2ccc(-c3ccc4[nH]ncc4c3)cc2)C1 [compound 431, 6-{[(3S)-1-(Cyclopropylcarbonyl)pyrrolidin-3-yl]methyl}-5-[4-(1H-indazol-5-yl)phenyl]-4,6-diazaspiro[2.4]hept-4-en-7-one]
> 3.02 µM | 0.372 µM |  |  | Cc1cc(-c2ccc3c(c2)c(C#N)nn3C)ccc1C1=NC2(CC2)C(=O)N1CC1CN(C(=O)C2CC2)C1 [compound 836, 5-(4-(6-((1-(cyclopropanecarbonyl)azetidin-3-yl)methyl)-7-oxo-4,6-diazaspiro[2.4]hept-4-en-5-yl)-3-methylphenyl)-1-methyl-1H-indazole-3-carbonitrile]
> 3.02 µM | 1.23 µM |  |  | O=C(N1CC(CN2C(=O)C3(CC3)N=C2c2ccc(-c3ccc4c(cnn4CCO)c3)cc2F)C1)C1(O)CC1 [compound 837, 5-(2-fluoro-4-(1-(2-hydroxyethyl)-1H-indazol-5-yl)phenyl)-6-((1-(1-hydroxycyclopropanecarbonyl)azetidin-3-yl)methyl)-4,6-diazaspiro[2.4]hept-4-en-7-one]
> 3.02 µM | > 3.02 µM |  |  | O=C(C1CC1)N1CC(CN2C(=O)C3(CC3)N=C2c2ccc(-c3ccc4ccc(=O)[nH]c4c3)cc2)C1 [compound 840]
> 3.02 µM | > 3.02 µM |  |  | N#CCCn1cc2cc(-c3ccc(C4=NC5(CC5)C(=O)N4CC4CN(C(=O)C5CC5)C4)cc3)ccc2n1 [compound 842, 3-(5-(4-(6-((1-(cyclopropanecarbonyl)azetidin-3-yl)methyl)-7-oxo-4,6-diazaspiro[2.4]hept-4-en-5-yl)phenyl)-2H-indazol-2-yl)propanenitrile]
